pIC50: −log10 of the molar value. Values joined by “and” are separate entries in the source; they are usually repeats but may differ in a detail not shown here. Equal entries are not always repeated. Where two headings read alike, the source gives them in different places.
How the values were obtained:
[1] = system: P. falciparum CAM3.II ring stages (0–3 h post invasion); assay: Plasmodium falciparum ring stage survival assay, resistant strain; assay type: cell-based; settings: for Ring stage survival, individual data points (Figure 4C): CAM3.11, replicate experiments
Procedure: (§1) Following tight synchronisation using sorbitol and Percoll® floatation, ring stage CAM3.II and CAM3.IIREV parasites (0–3 h post invasion) at 1% parasitaemia and 2% haematocrit were incubated with 700 nM of compounds or solvent-only controls for exactly 6 h, before removing the drug, thoroughly washing in RPMI with HEPES, and returning to culture conditions for a further 66 h. Some cells were treated with 700 nM artesunate for 72 h as a no-growth control. DNA replication (indicating growth) was measured at the specified time using SYBR Safe DNA Stain. Microscope slide smears of each condition were stained with 10% v/v Giemsa and examined under a light microscope (×1000 magnification); with ‘viable’ (morphologically normal) and ‘non-viable’ (morphologically aberrant; vacuolated or pyknotic) parasites distinguished according to standard protocol (Witkowski et al, [2013]). Images were captured using a Leica ICC50 camera, with a resolution of 76 nm per pixel, and cropped from larger images using Fiji ImageJ.
(§2) Appendix Fraser/Curtis et al.
(§3) Cells were detached from a flask using 0.25% Trypsin with 0.2 g/L EDTA (Sigma T4049) and washed with culture media containing no phenol red. Cells were incubated with a serial dilution of each compound, or media/DMSO alone. The protein synthesis inhibitor cycloheximide (Sigma 01810) at 10 µg/mL was used as a positive control to determine background absorbance. 5,000 cells were seeded in each well. After 96 hours, 0.45 mg/mL methylthiazolyldiphenyl-tetrazolium bromide (MTT; Sigma M2128) was added and incubated for a further two hours, before mixing 1.1:1 with 10% w/v sodium dodecyl sulfate (SDS) to solubilise crystals and freezing the plate at -18 °C to stop the assay. Plates were defrosted at room temperature and absorbance was read at 570 nm in an Infinite M1000 pro plate reader […]
(§4) Plasmodium falciparum Ring Stage Survival Assay
(§5) Ring stage survival assays were conducted according to standard protocols with some modifications (27, 28). CAM3.11 and CAM3.11REV parasites were sorbitol synchronised twice, 12 hours apart, and then incubated for a further 30 hours until the majority of the parasites were mature schizonts (with clearly separated nuclei). Pelleted RBCs were incubated at 37 °C with heparinised RPMI for 15 minutes, and then centrifuged over 75% Percoll® in PBS for 15 minutes at 1,000 g. Mature schizonts were collected, washed with warm RPMI, and cultured for exactly three hours with fresh uRBCs and culture media. After 3 hours, the cultures were sorbitol synchronised and incubated in duplicate with 700 nM of artesunate, PAYb076a, GGA5, HJB8a53, a DMSO solvent-only control or media alone for exactly six hours, before removing the drug, washing in RPMI, and returning to culture conditions. Samples of each cell suspension were transferred to a -18 °C freezer at the start of the assay (time = 0) or treated for the entire 72 hours with 700 nM artesunate to determine background fluorescence under no-growth conditions. After a further 66 hours of incubation (totalling 72 hours), cells were […]
(§6) resuspended, and a sample from each well was transferred to a fresh plate and frozen at -18 °C.
(§7) Microscope slide smears were made using the remaining cells and stained with 10% v/v Giemsa. Plates were thawed and SYBR Safe DNA Gel Stain (final concentration 1/10,000) diluted in lysis buffer (as above) was added for DNA detection at 490 nm excitation / 520 nm emission on a FLUOstar Optima fluorescence plate reader. Parasite proliferation and viability were also assessed using Giemsa-stained smears examined under a light microscope (1,000× magnification); with ‘viable’ and ‘non-viable’ (vacuolated or pyknotic) parasites distinguished according to standard protocol. Images were captured using a Leica ICC50 camera, with a resolution of 76 nm per pixel.
(§8) Growth inhibition data were normalised by subtracting background fluorescence, […]

[2] = system: P. falciparum CAM3.IIREV ring stages (0–3 h post invasion); assay: Plasmodium falciparum ring stage survival assay, susceptible revertant strain; assay type: cell-based; settings: for Parasite morphology in Giemsa-stained smears: 700 nM, 6 h treatment, 66 h further growth, CAM3.IIREV susceptible; for Ring stage survival, individual data points (Figure 4C): CAM3.11REV, replicate experiments
Procedure: as §1, §2, §3, §4, §5, §6, §7, §8

[3] = system: asexual P. falciparum 3D7 wild-type parasites; assay: P. falciparum asexual growth inhibition assay (SYBR Safe DNA replication); assay type: cell-based, Plasmodium falciparum; settings: Plasmodium falciparum, 72 h, 3D7 (Susceptible), read-out: IC50, P. falciparum asexual growth inhibition
Procedure: P. falciparum asexual parasite assays commenced with ring-stage parasites at 1% parasitaemia and 1% haematocrit. 200 nM chloroquine (Sigma C6628) or artesunate (Sigma A3731) was used as a no-growth control. DNA replication (indicating growth) was measured at the specified time using SYBR Safe DNA Gel Stain (Invitrogen 33102) and a fluorescence microplate reader (Smilkstein et al, [2004]; Spry et al, [2013]). […]
(§9) Growth and Viability Inhibition Assays:
(§10) Plasmodium falciparum Growth Inhibition Assays:
(§11) P. falciparum parasites were maintained under routine culture conditions in red blood cells and RPMI 1640-Hepes with Glutamax, supplemented with 10 mM D-glucose, 480 μM hypoxanthine, 20 μg/mL gentamicin, 0.375% (w/v) AlbuMAXTM II (Thermo Fisher 11021029), and 2.5% v/v heat-inactivated human serum (17). Cultures were maintained at 37 °C […]
wildtype parasites except for the ring stage survival assay, as specified. Cultures were synchronised with 5% w/v D-sorbitol (18).
Growth inhibition was investigated according to methods described by Smilkstein et al. (19) with modifications by Spry et al. (20). Compounds or solvent controls (DMSO, ethanol, or ethyl acetate) were serially diluted 2-fold across flat-bottom 96-well plates. Culture media without compound was used as a negative control. 200 nM chloroquine (Sigma C6628) or artesunate (Sigma A3731) was used as a positive control to determine background fluorescence. The parasitaemia of a culture containing predominantly ring stage parasites was counted by Giemsa smear. The parasitaemia was adjusted to 1% by addition of fresh uRBCs and added to the plate at a final haematocrit of 1%, with 200 µL per well. The plates were incubated at 37 °C under humid microaerophilic conditions. After 24, 48, or 72 hours, the plates were transferred to a -18 °C freezer to stop the assay and lyse cells. Plates were thawed and lysate was mixed 1:1 with SYBR Safe DNA Gel Stain (Invitrogen 33102) (final concentration 1/10,000) diluted in lysis buffer (20 mM TRIS, 5 mM EDTA, 0.008% w/v Saponin, 0.08% w/v Triton-X 100, pH 7.5). Fluorescence was detected at 490 nm excitation/ 520 nm emission on a FLUOstar Optima fluorescence plate reader (BMG Labtech).

[4] = system: asexual P. falciparum CAM3.II (Resistant); assay: P. falciparum asexual growth inhibition assay, resistant strain; assay type: cell-based; settings: Plasmodium falciparum, 72 h, read-out: IC50, P. falciparum asexual growth inhibition
Procedure: (§12) P. falciparum asexual parasite assays commenced with ring-stage parasites at 1% parasitaemia and 1% haematocrit. 200 nM chloroquine (Sigma C6628) or artesunate (Sigma A3731) was used as a no-growth control. DNA replication (indicating growth) was measured at the specified time using SYBR Safe DNA Gel Stain (Invitrogen 33102) and a fluorescence microplate reader (Smilkstein et al, [2004]; Spry et al, [2013]).
as §2, §9, §10, §11
(§13) Growth inhibition was investigated according to methods described by Smilkstein et al. (19) with modifications by Spry et al. (20). […] 200 nM chloroquine (Sigma C6628) or artesunate (Sigma A3731) was used as a positive control to determine background fluorescence. The parasitaemia of a culture containing predominantly ring stage parasites was counted by Giemsa smear. […] Fluorescence was detected at 490 nm excitation/ 520 nm emission on a FLUOstar Optima fluorescence plate reader (BMG Labtech).

[5] = system: asexual P. falciparum CAM3.IIREV (Susceptible); assay: P. falciparum asexual growth inhibition assay, revertant strain; assay type: cell-based; settings: Plasmodium falciparum, 72 h, read-out: IC50, P. falciparum asexual growth inhibition
Procedure: as §12, §2, §9, §10, §11, §13

[6] = design: method as in Morris et al, 2011; settings: ref Morris et al, 2011; cited from earlier work
[7] = 700 nM, 6 h treatment, 66 h further growth, CAM3.II resistant

SMILES | Parasite morphology in Giemsa-stained smears [1, 7] | Ring stage survival, individual data points (Figure 4C) ([1]; listed as GGA5) | Parasite morphology in Giemsa-stained smears [2] | Ring stage survival, individual data points (Figure 4C) ([2]; listed as GGA5) | pIC50 [3] | pIC50 ([4]; CAM3.II (Resistant)) | pIC50 [5] | Proportion of resistant parasites surviving treatment (DNA replication) ([1]; 700 nM, 6 h treatment, 66 h further growth, CAM3.II) | Ring stage survival, individual data points (Figure 4C) [1] | Ring stage survival, individual data points (Figure 4C) [2] | Half-life in blood [6] | pIC50 ([3]; 3D7, 72 h) | pIC50 [4] | Ring stage survival, growth [1, 7] | Ring stage survival, individual data points (Figure 4C) ([1]; listed as PAYb076a) | Ring stage survival, individual data points (Figure 4C) ([2]; listed as PAYb076a)
CC(C)OC(=O)CCC(=O)OC1OC2OC3(C)CCC4C(C)CCC(C1C)C24OO3 (stereo not drawn) [ART-link] | a combination of morphologically normal parasites (green arrows) and morphologically aberrant pyknotic or vacuolated forms | 38.82 and -2.964 and -8.71 and 33.42 | only morphologically aberrant parasites were present | -11.62 and -13.91 and -17.49 and -9.785 | – | – | – | – | – | – | – | – | – | – | – | –
C[C@H]1[C@H](OC(=O)CCC(=O)O)O[C@@H]2O[C@@]3(C)CC[C@H]4[C@H](C)CC[C@@H]1[C@@]24OO3 [Artesunate, artesunate, reference compound] | a combination of morphologically normal parasites (green arrows) and morphologically aberrant pyknotic or vacuolated forms | – | only morphologically aberrant parasites were present | – | 8.17 | 8.17 | 8.24 | ~ 30% | 35.31 and 54.58 and 24.97 and 17.6 | -6.969 and -6.239 and -6.353 and -8.044 | 30 to 90 min | – | – | – | – | –
CC1CCC2C(C)C(OC(=O)CCC(=O)OC3CCC4C5CC=C6CC(O)CCC6(C)C5CCC34C)OC3OC4(C)CCC1C32OO4 (stereo not drawn) [C-17-ART] | only aberrant, non-viable parasites were visible | – | only morphologically aberrant parasites were present | – | – | – | 7.96 | – | – | – | – | 7.97 | 7.98 | complete growth inhibition | 5.574 and -1.717 and 1.804 and -19.52 | -3.583 and -11.02 and -24.87 and -14.11
